From ChEMBL document CHEMBL1142047, “Identification of a 5-HT4 receptor antagonist clinical candidate through side-chain modification” (Bioorg Med Chem Lett, 2005)

How the values were obtained:
[1] = molecular target: 5-hydroxytryptamine receptor 4 (Homo sapiens, UniProt Q13639); test: Inhibitory constant for human cloned 5-HT4 receptor
in vivo [2] = settings: dog, plasma, iv, 0.25 mg/kg
[3] = Time taken for half of the concentration to degrade upon intravenous administration (n=7; dose 0.25 mg/kg iv); settings: dog, in vivo
[4] = Volume of distribution in dog (n=7; dose 0.25 mg/kg iv or 0.5 mg/kg po); settings: in vivo
[5] = (§1) Bioavailability in dog (dose 0.25 mg/kg i.v. and 0.5 mg/kg p.o.); settings: in vivo, po
[6] = Time taken for half of the concentration to degrade upon oral administration; assay type: ADME, organism-based, Canis lupus familiaris; settings: dog, in vivo
[7] = Time taken for half of the concentration to degrade upon oral administration (n=7; 0.5 mg/kg po); assay type: ADME, organism-based, Canis lupus familiaris; design: dose 0.5 mg/kg, route oral; settings: dog, in vivo
Histamine H1 receptor = Histamine H1 receptor (Rattus norvegicus, UniProt P31390)
Sequence of Histamine H1 receptor (P31390 whole entry): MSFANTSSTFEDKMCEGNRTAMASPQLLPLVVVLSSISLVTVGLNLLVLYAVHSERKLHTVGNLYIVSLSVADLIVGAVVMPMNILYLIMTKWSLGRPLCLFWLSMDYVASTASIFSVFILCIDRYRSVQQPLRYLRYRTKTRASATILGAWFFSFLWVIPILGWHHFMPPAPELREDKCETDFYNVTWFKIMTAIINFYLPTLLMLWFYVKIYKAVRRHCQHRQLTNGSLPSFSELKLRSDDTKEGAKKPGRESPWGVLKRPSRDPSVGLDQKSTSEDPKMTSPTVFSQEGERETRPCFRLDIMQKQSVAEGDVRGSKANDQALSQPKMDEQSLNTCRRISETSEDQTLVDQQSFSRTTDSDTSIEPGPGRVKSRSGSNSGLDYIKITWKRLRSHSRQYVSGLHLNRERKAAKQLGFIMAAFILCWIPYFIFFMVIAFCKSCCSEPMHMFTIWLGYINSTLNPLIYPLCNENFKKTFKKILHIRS

[8] = Volume of distribution in dog (n=8; dose 0.25 mg/kg iv or 0.5 mg/kg po); assay type: ADME, organism-based, Canis lupus familiaris; settings: in vivo, read-out: Vz
[9] = Plasma clearance in dog (n=8; dose 0.25 mg/kg iv or 0.5 mg/kg po); assay type: ADME, organism-based, Canis lupus familiaris
[10] = as §1; assay type: ADME, organism-based, Canis lupus familiaris; settings: in vivo, po
[11] = Time taken for half of the concentration to degrade upon intravenous administration (n=8; dose 0.25 mg/kg iv); assay type: ADME, organism-based, Canis lupus familiaris; design: dose 0.25 mg/kg, route intravenous; settings: dog, in vivo
in vivo [12] = settings: rat
[13] = Half-life in human; assay type: ADME
[14] = Bioavailability in rat; assay type: ADME, organism-based; settings: in vivo
[15] = Time taken for half of the concentration to degrade upon intravenous administration (n=12; dose 0.25 mg/kg iv); settings: dog, in vivo
[16] = Volume of distribution in dog (n=12; dose 0.25 mg/kg iv or 0.5 mg/kg po); settings: in vivo
in vivo [17] = settings: dog, plasma, iv, 0.25 mg/kg; remark: listed apart in the source
[18] = Percentage bioavailability (n=12; dose 0.25 mg/kg iv or 0.5 mg/kg po); assay type: ADME, organism-based, Canis lupus familiaris; settings: dog, in vivo
[19] = Intrinsic clearance of compound in human liver microsomes
[20] = Intrinsic clearance of compound in dog liver microsomes

Sequence of 5-hydroxytryptamine receptor 4 (Q13639 whole entry): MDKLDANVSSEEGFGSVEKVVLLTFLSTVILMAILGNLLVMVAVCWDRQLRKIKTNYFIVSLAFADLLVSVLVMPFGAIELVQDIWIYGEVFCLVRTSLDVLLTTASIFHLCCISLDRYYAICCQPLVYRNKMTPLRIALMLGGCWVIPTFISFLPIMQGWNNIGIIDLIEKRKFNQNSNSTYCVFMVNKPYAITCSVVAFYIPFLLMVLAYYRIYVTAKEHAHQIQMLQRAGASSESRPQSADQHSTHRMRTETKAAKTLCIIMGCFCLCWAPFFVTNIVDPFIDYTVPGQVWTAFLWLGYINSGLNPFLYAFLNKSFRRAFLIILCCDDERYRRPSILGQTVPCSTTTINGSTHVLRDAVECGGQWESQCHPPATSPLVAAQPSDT

Structure (SMILES)	Ki [1] [nM]	half-life [3] [h]	Vd [4] [L/kg]	bioavailability [5] [%]	other results
CC1(C)CCN(S(=O)(=O)CCCN2CCC(CNC(=O)c3cccc4c3OCCO4)CC2)CC1	0.126	0.7	1.5	100	clearance (in vivo [2]): 27 mL/min/kg
CC(=O)N1CCN(S(=O)(=O)CCCN2CCC(CNC(=O)c3cccc4c3OCCO4)CC2)CC1	0.126	1.3	0.7	51	clearance (in vivo [2]): 6 mL/min/kg; half-life [6]: 4.6 h
CS(=O)(=O)N1CCN(S(=O)(=O)CCCN2CCC(CNC(=O)c3cccc4c3OCCO4)CC2)CC1	0.316	1.2	0.3	90	half-life [7]: 3.6 h
CC(C)S(=O)(=O)N1CCN(S(=O)(=O)CCCN2CCC(CNC(=O)c3cccc4c3OCCO4)CC2)CC1	0.126	–	–	–	–
CCCC1CCN(S(=O)(=O)CCCN2CCC(CNC(=O)c3cccc4c3OCCO4)CC2)CC1	0.0631	0.5	1.4	15	clearance (in vivo [2]): 33 mL/min/kg
CN1CCN(S(=O)(=O)CCCN2CCC(CNC(=O)c3cccc4c3OCCO4)CC2)CC1	0.251	–	–	–	IC50 (Histamine H1 receptor): 100 nM
O=C(NCC1CCN(CCCS(=O)(=O)N2CCN(c3ccc(F)cc3)CC2)CC1)c1cccc2c1OCCO2	0.0501	–	–	–	–
O=C(NCC1CCN(CCCS(=O)(=O)N2CCNCC2)CC1)c1cccc2c1OCCO2	0.158	–	–	–	Vd [8]: 34 L/kg; clearance [9]: 11 mL/min/kg; bioavailability [10]: 33%; half-life [11]: 37 h
O=C(NCC1CCN(CCCS(=O)(=O)N2CCN(C(=O)c3ccco3)CC2)CC1)c1cccc2c1OCCO2	0.1	–	–	–	Vd [8]: 0.2 L/kg; clearance [9]: 2 mL/min/kg; bioavailability [10]: 64%; half-life [11]: 1 h
O=C(NCC1CCN(CCCS(=O)(=O)N2CCN(C3CCCC3)CC2)CC1)c1cccc2c1OCCO2	0.0158	–	–	–	Vd [8]: 9.3 L/kg; clearance [9]: 37 mL/min/kg; bioavailability [10]: 42%; half-life [11]: 2.9 h
CCCN1CCN(S(=O)(=O)CCCN2CCC(CNC(=O)c3cccc4c3OCCO4)CC2)CC1	0.0316	–	–	–	–
CCC(C)N1CCN(S(=O)(=O)CCCN2CCC(CNC(=O)c3cccc4c3OCCO4)CC2)CC1 (configuration not stated)	0.0251	–	–	–	–
O=C(NCC1CCN(CCCS(=O)(=O)N2CCN(Cc3cccnc3)CC2)CC1)c1cccc2c1OCCO2	0.158	–	–	–	–
O=C(NCC1CCN(CCCS(=O)(=O)N2CCCCC2)CC1)c1cccc2c1OCCO2	0.2	–	–	–	–
CCCCN1CCC(CNC(=O)c2cccc3c2OCCO3)CC1	0.794	–	–	–	half-life (in vivo [12]): < 1 h; half-life [13]: 60 h; bioavailability [14]: 18%
CC(C)N1CCN(S(=O)(=O)CCCN2CCC(CNC(=O)c3cccc4c3OCCO4)CC2)CC1	0.0316	3	3.6	72	clearance (in vivo [2]): 14 mL/min/kg
CCCS(=O)(=O)N1CCN(S(=O)(=O)CCCN2CCC(CNC(=O)c3cccc4c3OCCO4)CC2)CC1	0.1	0.7	0.7	82	clearance (in vivo [2]): 12 mL/min/kg
O=C(NCC1CCN(CCCS(=O)(=O)N2CCN(S(=O)(=O)N3CCCC3)CC2)CC1)c1cccc2c1OCCO2	0.0794	–	–	–	–
O=C(NCC1CCN(CCCS(=O)(=O)N2CCN(c3ncccn3)CC2)CC1)c1cccc2c1OCCO2	0.251	0.7	0.3	65	clearance (in vivo [2]): 5 mL/min/kg
O=C(NCC1CCN(CCCS(=O)(=O)N2CCC3(CCCC3)CC2)CC1)c1cccc2c1OCCO2	0.0251	–	–	–	–
O=C(NCC1CCN(CCCS(=O)(=O)N2CCOCC2)CC1)c1cccc2c1OCCO2	0.398	–	–	76	half-life [15]: 1 h; Vd [16]: 1.6 L/kg; clearance (in vivo [17]): 7 mL/min/kg
O=C(NCC1CCN(CCCS(=O)(=O)N2CCN(S(=O)(=O)c3ccc(F)cc3)CC2)CC1)c1cccc2c1OCCO2	0.0316	–	–	–	–
CCN1CCN(S(=O)(=O)CCCN2CCC(CNC(=O)c3cccc4c3OCCO4)CC2)CC1	0.0501	3.1	3.6	94	–
CCCCN1CCC(CNC(=O)c2c3n(c4ccccc24)CCCO3)CC1 [PIBOSEROD]	0.251	–	–	–	bioavailability [18]: 71%; half-life [15]: 7.1 h; Vd [16]: 5 L/kg; microsomal CLint [19]: 5 µL/min/mg; microsomal CLint [20]: 4 µL/min/mg; clearance (in vivo [17]): 8 mL/min/kg
